Activity calls are given as the source filed them.

Data set [1] concerns the target Ion channel NompC (Danio rerio, UniProt Q7T1G6). Put plainly: Fluorescence counterscreen assay for TRPML3 agonists: dose response cell-based high-throughput screening assay to identify agonists of the transient receptor potential channel N1 (TRPN1). [Related pubchem assays: 1526, 1424, 1448 ]. The format is functional.
In data set [2] the target is T1, Mucolipin-3 (Homo sapiens, UniProt Q8TDD5).
T1 sequence (Q8TDD5 whole entry): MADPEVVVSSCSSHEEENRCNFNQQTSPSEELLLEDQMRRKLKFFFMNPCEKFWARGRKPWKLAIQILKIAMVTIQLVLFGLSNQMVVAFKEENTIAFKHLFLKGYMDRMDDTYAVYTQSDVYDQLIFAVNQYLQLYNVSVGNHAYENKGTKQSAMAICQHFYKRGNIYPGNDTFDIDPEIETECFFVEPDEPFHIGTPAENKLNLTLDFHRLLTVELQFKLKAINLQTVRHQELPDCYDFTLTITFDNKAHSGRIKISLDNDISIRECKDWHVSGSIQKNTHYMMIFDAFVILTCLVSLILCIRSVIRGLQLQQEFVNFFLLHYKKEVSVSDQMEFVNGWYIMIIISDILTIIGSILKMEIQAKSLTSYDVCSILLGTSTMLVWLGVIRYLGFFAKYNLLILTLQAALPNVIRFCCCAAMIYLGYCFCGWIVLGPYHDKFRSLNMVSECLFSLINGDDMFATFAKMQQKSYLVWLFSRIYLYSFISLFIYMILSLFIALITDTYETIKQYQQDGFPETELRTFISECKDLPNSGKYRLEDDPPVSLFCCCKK
Briefly: Dose response cell-based high-throughput screening assay for agonists of the transient receptor potential channel ML3 (TRPML3). [Related pubchem assays: 1526, 1424, 1448 ]. The data set is classed as functional.

Data set [3] is described as follows: Luminescence Cell-Based Dose Confirmation HTS to Identify Inhibitors of Platelet Dense Granule Release. [Related pubchem assays: 1663 (Primary HTS), 1678 (Summary of Project)]. The format is functional.
Data set [4] in a line: A cytotoxicity screen of small molecule inhibitors of the PhoP region in Salmonella typhi identified in the primary screen. [Related pubchem assays: 1850, 1864, 1985 ]. The data set is classed as functional.
The target of data set [5] is Luciferin 4-monooxygenase (Photinus pyralis, UniProt P08659). Briefly: firefly luciferase enzyme inhibitors, dose response, biochemical, luminescence (AID 1891).
Data set [6] deals with Voltage-dependent T-type calcium channel subunit alpha-1H (Homo sapiens, UniProt O95180). The data set is classed as functional.
In data set [7] the target is T2, Alkaline phosphatase, tissue-nonspecific isozyme (Homo sapiens, UniProt P05186).
T2 sequence (P05186 whole entry): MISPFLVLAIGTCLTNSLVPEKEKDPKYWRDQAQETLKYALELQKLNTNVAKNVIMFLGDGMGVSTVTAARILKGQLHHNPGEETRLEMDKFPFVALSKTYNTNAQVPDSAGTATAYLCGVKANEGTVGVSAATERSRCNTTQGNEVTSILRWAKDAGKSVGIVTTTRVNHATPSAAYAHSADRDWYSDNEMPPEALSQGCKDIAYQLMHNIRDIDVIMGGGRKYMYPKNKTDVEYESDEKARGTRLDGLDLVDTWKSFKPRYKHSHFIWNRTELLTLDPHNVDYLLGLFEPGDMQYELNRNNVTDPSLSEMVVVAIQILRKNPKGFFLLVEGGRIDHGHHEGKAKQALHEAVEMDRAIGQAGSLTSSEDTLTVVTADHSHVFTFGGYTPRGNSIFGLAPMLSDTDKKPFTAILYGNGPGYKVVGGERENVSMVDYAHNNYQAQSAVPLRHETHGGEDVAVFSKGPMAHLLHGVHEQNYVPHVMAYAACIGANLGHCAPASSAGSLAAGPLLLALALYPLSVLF
Briefly: human TNAP enzyme inhibitors, SAR follow-up, biochemical, luminescent, dose response (AID 1056).

The target in data set [8] is Glyceraldehyde-3-phosphate dehydrogenase (Homo sapiens, UniProt P04406).
Data set [9] in a line: inhibitors of SNCA 5'UTR-driven translation, confirmation, luminescence, H4 neuroglioblastoma cells, dose confirmation (AID 2454).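 Further: H4 neuroglioblastoma cells carrying an alpha-synuclein 5'UTR luciferase reporter; potency for inhibition of the luciferase signal.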 The format is functional, cell-based.
Data set [10] can be described thus: Luminescence Cell-Based Dose Response HTS to Identify Inhibitors of 5'UTR Stem-Loop Driven Prion Protein mRNA Translation in H4 Neuroglioblastoma Cells. [Related pubchem assays: 1827 (Project Summary), 1813 (Primary HTS)]. The data set is classed as functional.
Data set [11] in a line: inhibitors of firefly luciferase expression or activity, dose response, H4 neuroglioma cells, luminescence (AID 1990). The format is functional, cell-based.
Data set [12] in a line: cells. The format is functional, cell-based.
Data set [13] in a line: luciferase reporter signal reduction – luminescence, H4-C neuroglioblastoma cells, dose response (AID 2458).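 Further: H4 neuroglioblastoma cells stably carrying a luciferase reporter gene fusion.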 The data set is classed as functional, cell-based.
Data set [14] deals with T3, Heat shock factor protein 1 (Mus musculus, UniProt P38532).
T3 sequence (P38532 whole entry): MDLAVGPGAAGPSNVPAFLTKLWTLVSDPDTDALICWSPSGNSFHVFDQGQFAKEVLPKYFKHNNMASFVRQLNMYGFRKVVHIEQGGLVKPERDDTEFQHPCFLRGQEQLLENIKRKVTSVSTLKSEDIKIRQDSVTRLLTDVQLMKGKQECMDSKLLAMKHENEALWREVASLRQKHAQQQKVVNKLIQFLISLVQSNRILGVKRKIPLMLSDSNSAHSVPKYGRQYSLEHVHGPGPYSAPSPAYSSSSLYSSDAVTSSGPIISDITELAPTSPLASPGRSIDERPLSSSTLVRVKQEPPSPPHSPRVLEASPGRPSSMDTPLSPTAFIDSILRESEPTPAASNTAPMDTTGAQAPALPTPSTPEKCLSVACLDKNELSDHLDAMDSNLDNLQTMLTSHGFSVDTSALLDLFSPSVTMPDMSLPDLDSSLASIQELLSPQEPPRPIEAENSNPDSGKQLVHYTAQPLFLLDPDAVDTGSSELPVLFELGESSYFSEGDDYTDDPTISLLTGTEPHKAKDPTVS
Briefly: inhibition of MG132-induced HSE-luciferase signal, confirmation, cell-based, NIH3T3, luminescence, dose retest (AID 2382).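 Further: NIH3T3 fibroblasts with HSF1-driven luciferase reporter stressed by proteasome inhibitor MG132; luminescence from HSF1-driven luciferase expression after 8 hours of MG132 stress.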 The data set is classed as functional.

A short description of data set [15]: Luminescence Cell-Based Dose Confirmation HTS to Identify Activators of 5'UTR Stem-Loop Driven Alpha-Synuclein mRNA Translation in H4 Neuroglioblastoma Cells. [Related pubchem assays: 1829 (Project Summary), 1814 (Primary HTS)]. The format is functional.
In data set [16] the target is DNA dC->dU-editing enzyme APOBEC-3A (Homo sapiens, UniProt P31941). Put plainly: Dose Response confirmation of small molecule APOBEC3A DNA Deaminase Inhibitors via a fluorescence-based single-stranded DNA deaminase assay. [Related pubchem assays (depositor defined):AID493011, AID493024]. The format is functional.
In data set [17] the test system is H4. Put plainly: Luminescence Cell-Based Dose Response HTS to Identify Activators of 5'UTR Stem-Loop Driven Prion Protein mRNA Translation in H4 Neuroglioblastoma Cells. [Related pubchem assays: 1829 (Project Summary), 1814 (Primary HTS)]. The format is functional. Conditions: Homo sapiens.
The nature of data set [18]: Luminescence Cell-Based Dose Response HTS to Identify Activators of Luciferase Translation or Activity in H4 […] Cells. [Related pubchem assays: 1829 (Project Summary), 1814 (Primary HTS)]. The format is functional.
Data set [19] concerns the target DNA dC->dU-editing enzyme APOBEC-3G (Homo sapiens, UniProt Q9HC16). The format is functional.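 Further: Dose-response counterscreen measuring inhibition of APOBEC3G DNA deaminase activity, run while confirming APOBEC3A inhibitors.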
The nature of data set [20]: NIH-3T3 fibroblast cytotoxicity, dose response, cytotoxicity control, cell-based, fluorescence, Alamar Blue, secondary assay (AID 2327).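 Further: NIH-3T3 mouse fibroblasts cultured with fluconazole at 8 µg/mL.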 The data set is classed as functional.
Data set [21] has as its target T4, Bcl-2-like protein 10 (Homo sapiens, UniProt Q9HD36).
T4 sequence (Q9HD36 whole entry): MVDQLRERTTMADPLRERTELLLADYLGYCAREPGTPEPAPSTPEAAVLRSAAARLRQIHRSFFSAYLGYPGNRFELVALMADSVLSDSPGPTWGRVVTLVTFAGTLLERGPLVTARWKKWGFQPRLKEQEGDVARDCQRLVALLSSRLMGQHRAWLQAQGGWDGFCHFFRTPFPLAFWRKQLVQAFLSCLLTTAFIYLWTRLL
Put plainly: displacers of TR3 peptide from Bcl-B, primary screen, selectivity assay for Bfl-1 inhibitor project, biochemical, fluorescence polarization, FITC-TR3 peptide (AID 748).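 Further: fluorescence polarization from a fluorescein-labelled TR3 peptide binding purified Bcl-B.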

Data set [22] has as its target T5, Cytochrome P450 1A2 (Homo sapiens, UniProt P05177).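 Further: PubChem cytochrome P450 panel assay, CYP1A2 panel member.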
T5 sequence (P05177 whole entry): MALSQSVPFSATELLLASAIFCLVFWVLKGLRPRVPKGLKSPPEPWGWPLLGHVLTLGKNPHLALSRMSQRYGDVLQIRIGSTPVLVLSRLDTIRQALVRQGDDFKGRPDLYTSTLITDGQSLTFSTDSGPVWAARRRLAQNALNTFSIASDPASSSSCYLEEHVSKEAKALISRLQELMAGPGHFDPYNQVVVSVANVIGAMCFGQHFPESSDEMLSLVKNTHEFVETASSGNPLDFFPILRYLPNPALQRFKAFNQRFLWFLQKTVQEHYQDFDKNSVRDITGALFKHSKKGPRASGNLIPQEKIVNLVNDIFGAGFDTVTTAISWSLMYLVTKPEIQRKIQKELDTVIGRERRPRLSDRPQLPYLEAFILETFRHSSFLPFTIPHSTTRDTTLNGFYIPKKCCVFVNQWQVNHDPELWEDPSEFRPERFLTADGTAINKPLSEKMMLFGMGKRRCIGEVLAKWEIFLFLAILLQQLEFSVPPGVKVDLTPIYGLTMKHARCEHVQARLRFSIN

A short description of data set [23]: THP-1 cell cytotoxicity, dose response, cytotoxicity control for Vif-APOBEC3G degradation inhibitor project, THP-1 cells (AID 1117359). The format is functional. The note with it: Human immunodeficiency virus 1, THP-1.
Data set [24] has as its target T6, Estrogen receptor beta (Homo sapiens, UniProt Q92731).
Data set [25] addresses Cytochrome P450 3A4 (Homo sapiens, UniProt P08684).
The target of data set [26] is Cytochrome P450 2C19 (Homo sapiens, UniProt P33261). Briefly: Cytochrome panel assay with activity outcomes. Panel member name: p450-cyp2c19 Compounds with AC50 equal or less than 10 uM are considered active. The data set is classed as functional.
For data set [27], the target named is Cytochrome P450 2C9 (Homo sapiens, UniProt P11712).
The target of data set [28] is T6, Estrogen receptor beta. Put plainly: ERβ–SRC-3 coactivator interaction inhibitors, confirmation, orthogonal assay, biochemical, ELISA, streptavidin-HRP readout (AID 1060).

Voltage-dependent T-type calcium channel subunit alpha-1H, sequence (O95180 whole entry): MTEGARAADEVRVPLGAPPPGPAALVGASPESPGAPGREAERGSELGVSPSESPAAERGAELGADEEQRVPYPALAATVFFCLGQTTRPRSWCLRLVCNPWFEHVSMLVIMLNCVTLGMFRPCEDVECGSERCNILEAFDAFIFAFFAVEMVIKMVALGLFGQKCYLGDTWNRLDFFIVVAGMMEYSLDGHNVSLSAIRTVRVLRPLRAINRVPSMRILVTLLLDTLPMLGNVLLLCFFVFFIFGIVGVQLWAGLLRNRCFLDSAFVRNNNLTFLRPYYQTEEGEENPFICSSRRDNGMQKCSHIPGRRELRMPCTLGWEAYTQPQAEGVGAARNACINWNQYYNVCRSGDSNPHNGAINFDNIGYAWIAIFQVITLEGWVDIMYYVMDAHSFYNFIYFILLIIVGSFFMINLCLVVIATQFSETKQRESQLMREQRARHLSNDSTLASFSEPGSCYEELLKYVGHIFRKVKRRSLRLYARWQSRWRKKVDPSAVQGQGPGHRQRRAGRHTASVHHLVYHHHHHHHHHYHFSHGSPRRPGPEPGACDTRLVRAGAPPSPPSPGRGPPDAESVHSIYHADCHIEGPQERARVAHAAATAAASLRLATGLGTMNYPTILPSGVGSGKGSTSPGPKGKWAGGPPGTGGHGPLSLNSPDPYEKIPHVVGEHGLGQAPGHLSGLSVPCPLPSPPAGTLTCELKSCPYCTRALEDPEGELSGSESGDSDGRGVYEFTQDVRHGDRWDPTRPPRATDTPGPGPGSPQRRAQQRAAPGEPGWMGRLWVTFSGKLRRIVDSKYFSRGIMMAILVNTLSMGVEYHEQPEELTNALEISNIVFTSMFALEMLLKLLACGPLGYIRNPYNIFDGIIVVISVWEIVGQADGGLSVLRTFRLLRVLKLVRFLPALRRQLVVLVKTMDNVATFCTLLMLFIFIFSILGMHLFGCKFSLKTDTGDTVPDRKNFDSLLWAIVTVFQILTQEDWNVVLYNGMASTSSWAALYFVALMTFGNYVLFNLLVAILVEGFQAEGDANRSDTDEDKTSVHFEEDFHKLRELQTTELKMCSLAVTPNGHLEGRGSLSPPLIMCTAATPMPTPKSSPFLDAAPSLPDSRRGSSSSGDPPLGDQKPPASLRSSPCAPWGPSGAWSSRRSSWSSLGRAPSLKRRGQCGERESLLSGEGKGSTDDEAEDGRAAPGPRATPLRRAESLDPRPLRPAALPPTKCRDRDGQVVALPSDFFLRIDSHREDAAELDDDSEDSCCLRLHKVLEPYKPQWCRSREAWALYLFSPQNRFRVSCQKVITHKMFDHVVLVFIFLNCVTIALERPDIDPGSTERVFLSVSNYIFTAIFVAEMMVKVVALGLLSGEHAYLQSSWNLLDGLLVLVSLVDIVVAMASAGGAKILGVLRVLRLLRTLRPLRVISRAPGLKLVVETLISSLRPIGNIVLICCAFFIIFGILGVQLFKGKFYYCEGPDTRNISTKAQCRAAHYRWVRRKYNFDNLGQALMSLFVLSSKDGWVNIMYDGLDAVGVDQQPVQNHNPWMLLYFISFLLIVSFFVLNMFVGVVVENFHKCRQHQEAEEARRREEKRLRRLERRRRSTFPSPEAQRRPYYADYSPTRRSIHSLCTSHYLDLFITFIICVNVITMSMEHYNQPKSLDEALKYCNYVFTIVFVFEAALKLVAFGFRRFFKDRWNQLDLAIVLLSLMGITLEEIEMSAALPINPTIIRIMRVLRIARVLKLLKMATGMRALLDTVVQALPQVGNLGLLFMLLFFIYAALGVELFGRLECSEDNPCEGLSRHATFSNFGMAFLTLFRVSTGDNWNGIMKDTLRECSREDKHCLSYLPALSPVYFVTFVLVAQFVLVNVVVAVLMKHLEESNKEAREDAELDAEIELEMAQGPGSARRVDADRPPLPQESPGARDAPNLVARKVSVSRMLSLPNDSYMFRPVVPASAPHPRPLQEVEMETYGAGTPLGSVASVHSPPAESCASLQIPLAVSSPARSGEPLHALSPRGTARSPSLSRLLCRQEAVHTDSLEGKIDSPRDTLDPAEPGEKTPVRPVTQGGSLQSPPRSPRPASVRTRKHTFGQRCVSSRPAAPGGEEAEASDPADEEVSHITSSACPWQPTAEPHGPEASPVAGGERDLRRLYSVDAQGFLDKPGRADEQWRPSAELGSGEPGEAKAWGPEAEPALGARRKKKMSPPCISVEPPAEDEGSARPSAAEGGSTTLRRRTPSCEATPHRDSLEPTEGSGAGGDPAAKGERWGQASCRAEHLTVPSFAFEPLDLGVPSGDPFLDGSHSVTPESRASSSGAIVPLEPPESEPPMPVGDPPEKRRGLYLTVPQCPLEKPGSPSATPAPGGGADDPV
Luciferin 4-monooxygenase, sequence (P08659 whole entry): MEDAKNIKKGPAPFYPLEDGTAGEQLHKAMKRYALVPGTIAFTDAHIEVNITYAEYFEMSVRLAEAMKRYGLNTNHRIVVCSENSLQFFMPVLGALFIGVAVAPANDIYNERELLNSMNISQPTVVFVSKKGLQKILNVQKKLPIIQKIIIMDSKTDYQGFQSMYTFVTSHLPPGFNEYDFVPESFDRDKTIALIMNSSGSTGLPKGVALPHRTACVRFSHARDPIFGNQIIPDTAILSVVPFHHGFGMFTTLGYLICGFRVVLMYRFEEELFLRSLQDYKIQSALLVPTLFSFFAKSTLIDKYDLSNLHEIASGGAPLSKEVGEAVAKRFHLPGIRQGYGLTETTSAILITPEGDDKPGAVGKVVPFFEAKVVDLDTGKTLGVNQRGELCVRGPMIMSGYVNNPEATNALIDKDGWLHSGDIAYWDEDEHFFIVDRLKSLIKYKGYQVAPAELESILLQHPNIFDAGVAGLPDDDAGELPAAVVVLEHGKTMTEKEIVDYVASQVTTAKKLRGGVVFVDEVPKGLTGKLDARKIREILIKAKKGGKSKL
T6 sequence (Q92731 whole entry): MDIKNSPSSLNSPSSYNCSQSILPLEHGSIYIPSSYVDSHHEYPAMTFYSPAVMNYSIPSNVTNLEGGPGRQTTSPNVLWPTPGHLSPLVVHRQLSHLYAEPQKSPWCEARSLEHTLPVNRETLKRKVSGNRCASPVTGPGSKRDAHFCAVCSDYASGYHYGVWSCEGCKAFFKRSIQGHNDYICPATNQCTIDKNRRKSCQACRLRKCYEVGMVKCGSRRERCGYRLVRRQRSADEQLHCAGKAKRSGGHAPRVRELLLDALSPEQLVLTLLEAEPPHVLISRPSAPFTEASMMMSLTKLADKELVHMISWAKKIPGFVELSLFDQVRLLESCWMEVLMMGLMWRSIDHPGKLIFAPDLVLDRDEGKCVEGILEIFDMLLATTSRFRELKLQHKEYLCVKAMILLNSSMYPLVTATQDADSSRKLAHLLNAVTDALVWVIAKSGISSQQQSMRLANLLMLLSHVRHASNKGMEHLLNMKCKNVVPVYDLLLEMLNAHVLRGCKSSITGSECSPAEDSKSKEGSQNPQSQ
Ion channel NompC, sequence (Q7T1G6 whole entry): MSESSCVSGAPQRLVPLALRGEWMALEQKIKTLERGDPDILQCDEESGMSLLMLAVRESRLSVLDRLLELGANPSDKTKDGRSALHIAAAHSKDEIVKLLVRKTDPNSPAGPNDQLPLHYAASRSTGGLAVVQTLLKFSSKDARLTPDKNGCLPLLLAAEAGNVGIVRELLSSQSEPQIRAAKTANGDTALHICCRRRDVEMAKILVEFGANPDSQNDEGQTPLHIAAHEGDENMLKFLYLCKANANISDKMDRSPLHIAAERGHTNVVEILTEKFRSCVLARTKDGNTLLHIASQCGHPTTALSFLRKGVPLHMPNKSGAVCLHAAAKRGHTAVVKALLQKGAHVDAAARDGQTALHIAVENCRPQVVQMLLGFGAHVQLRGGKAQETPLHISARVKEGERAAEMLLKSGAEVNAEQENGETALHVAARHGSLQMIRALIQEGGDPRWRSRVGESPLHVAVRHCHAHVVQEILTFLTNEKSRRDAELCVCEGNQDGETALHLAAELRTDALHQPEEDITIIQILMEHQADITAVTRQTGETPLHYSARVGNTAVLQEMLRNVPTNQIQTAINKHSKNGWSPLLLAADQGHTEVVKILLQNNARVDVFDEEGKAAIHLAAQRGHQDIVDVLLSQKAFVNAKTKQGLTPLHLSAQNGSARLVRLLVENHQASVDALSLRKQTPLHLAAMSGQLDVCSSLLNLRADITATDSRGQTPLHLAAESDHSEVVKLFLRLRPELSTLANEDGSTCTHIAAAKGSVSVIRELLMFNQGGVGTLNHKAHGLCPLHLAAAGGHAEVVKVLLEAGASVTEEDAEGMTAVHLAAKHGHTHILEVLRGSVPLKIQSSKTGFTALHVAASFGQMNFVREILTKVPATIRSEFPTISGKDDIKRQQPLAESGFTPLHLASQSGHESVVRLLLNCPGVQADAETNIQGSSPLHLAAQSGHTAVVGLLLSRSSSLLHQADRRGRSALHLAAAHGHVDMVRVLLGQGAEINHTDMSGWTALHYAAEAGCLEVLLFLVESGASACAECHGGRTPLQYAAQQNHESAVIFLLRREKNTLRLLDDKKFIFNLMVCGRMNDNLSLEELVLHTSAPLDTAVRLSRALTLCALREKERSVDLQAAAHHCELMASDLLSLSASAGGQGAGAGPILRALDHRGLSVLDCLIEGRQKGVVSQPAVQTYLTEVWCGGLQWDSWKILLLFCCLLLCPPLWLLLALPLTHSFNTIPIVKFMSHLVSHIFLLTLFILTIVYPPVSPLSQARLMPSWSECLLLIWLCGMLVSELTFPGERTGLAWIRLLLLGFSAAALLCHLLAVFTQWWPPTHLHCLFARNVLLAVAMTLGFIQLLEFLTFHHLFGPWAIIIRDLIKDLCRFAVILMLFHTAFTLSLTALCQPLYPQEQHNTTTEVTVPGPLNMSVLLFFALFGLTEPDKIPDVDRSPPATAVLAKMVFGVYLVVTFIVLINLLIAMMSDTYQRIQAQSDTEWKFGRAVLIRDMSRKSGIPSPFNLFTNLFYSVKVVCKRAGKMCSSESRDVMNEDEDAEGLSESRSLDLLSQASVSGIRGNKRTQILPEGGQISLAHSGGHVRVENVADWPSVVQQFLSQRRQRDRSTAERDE

As for `CC1(C)CCCC2=C1CC1C(=O)N(c3ccccc3)C(=O)C1C2` (stereo unspecified), the EC50 in data set [1] and in data set [2] was > 29.9 µM (not active) throughout.

Consider `COc1ccc(NC(=O)N2CCc3ccccc32)cc1`, for which the values for the EC50 in data set [3], in data set [4] and in [5] were 1.08 µM (active), > 50 µM (active) and 3.53 µM (active), respectively.

Consider `COc1ccccc1N1CCN(CCCCOc2ccc(F)cc2)CC1`, for which the EC50 in data set [6] was 7.52 µM (active).

On to `COC(=O)c1cc(-c2ccc(C)cc2)[nH]n1`, for which the IC50 in data set [7] is 3.43 µM (active); in [8], > 100 µM (not active).

As for `CC(C)(C)n1nnnc1C(c1ccc(Cl)cc1)N1CCSCC1` (stereo unspecified), the EC50 in data set [6] is 0.85 µM (active); in data set [3] it was > 112 µM (not active); in data set [5] it was > 112 µM (not active).

For `Cc1ccc(Cn2cc(C=O)c3ccccc32)cc1`, the EC50 in [9] was 1.29 µM (active); in data set [10] it was < 0.1 µM (active); in [11], 4.41 µM (active); in data set [12] it was 0.782 µM (active); in data set [13], 1.22 µM (active).

With `CCCCn1c(C)cc(C)c(S(=O)(=O)c2ccccc2C)c1=O`, the EC50 was > 195 µM (not active) in data set [14], > 29.9 µM (not active) in data set [1] and 3.78 µM (active) in data set [2].

Regarding `Nc1ccc2nc(SCC(=O)Nc3ccc(N4CCOCC4)c(Cl)c3)sc2c1`, the EC50 was 14.9 µM (active) in data set [15], 49.1 µM (active) in data set [17] and 9.41 µM (active) in data set [18]. Moreover, the IC50 was 3.65 µM (active) in [16] and 8.08 µM (active) in data set [19].

Regarding `C#CCSc1nnc(N)[nH]1`, the values for the IC50 in [7] and in data set [8] were > 100 µM (inactive) and > 100 µM (not active), respectively.

For `C=CCSc1nc2c(cnn2-c2ccccc2)c(=O)n1N`, the EC50 in data set [9] was 0.235 µM (inconclusive); in [12], 0.914 µM (inconclusive); in data set [13], 0.375 µM (inconclusive).

As for `CCOc1cc(/C=C(\C#N)C(=O)NCC2CCCO2)ccc1OCC(N)=O` (stereo unspecified), the IC50 is 8.13 µM (active) in data set [16] and 11 µM (active) in data set [19]. Further, the EC50 in data set [20] is > 160 µM (inactive).

Turning to `CC1=C(C#N)CCC(=O)N1Cc1c(C)cc(C)cc1C`, the EC50 in data set [4] is > 50 µM (active).

Regarding `COc1ccc(CCn2c(=N)c(C(=O)NCC3CCCO3)cc3c(=O)n4ccccc4nc32)cc1` (stereo unspecified), the EC50 in data set [3] is 15.7 µM (active); in data set [4], > 50 µM (active); in data set [5], > 112 µM (not active).

Regarding `Cc1nn2c(N)csc2nc1=O`, in [21], the IC50 was > 12.5 µM (inactive).

With `O=C(Nc1ccc2c(c1)OCCO2)c1cc2sccc2n1Cc1ccccc1`, the concentration giving a half-maximal response (EC50) in [6] is 7.92 µM (active). In addition, in data set [22], the AC50 was 12.6 µM (inconclusive).

With `O=[N+]([O-])c1cc(-c2ccc(/C=N/c3nc4ccccn4c3-c3ccco3)o2)ccc1Cl`, the IC50 in [21] is 96.8 µM (inactive). In data set [23], the CC50 was 18.8 µM (active).

Consider `Cc1ccc(C)c(C(=O)C2=C(O)C(=O)N(CCN3CCOCC3)C2c2ccco2)c1` (stereo unspecified), for which the IC50 in data set [24] was 18.4 µM (active); in data set [28] it was 32.1 µM (not active). Moreover, the AC50 was 39.8 µM (inconclusive) in data set [25], “inconclusive” in data set [26] and 0.1 µM (inconclusive) in [27].

The values above are taken from ChEMBL document CHEMBL1201862, “PubChem BioAssay data set” (2004).
